Columns and labels:
hEPO = hEPO mRNA expression evaluation (hEPO-LNPs, serum hEPO by ELISA); assay type: in vivo, Balb/c mice; details: serum after 6 hr; for EPO exprssn (ng/mL) 0.03 mpk: 0.03 mpk hEPO-LNP intravenously; for EPO exprssn (ng/mL) 0.1 mpk: 0.1 mpk hEPO-LNP intravenously
Protocol: Lipid formulations comprising a hEPO mRNA below were evaluated for their ability to express hEPO in vivo according to the protocol of this example. All animal experiments were conducted using institutionally-approved protocols (IACUC). In this protocol, female Balb/c mice at least 6-8 weeks of age were purchased from Charles River Laboratory. The mice were intravenously injected with hEPO-LNPs via the tail vein with one of two dose levels of hEPO (0.1 and 0.03 mg/kg). After 6 hr, blood was collected with serum separation tubes, and the serum was isolated by centrifugation. Serum hEPO levels were then measured using an ELISA assay (Human Erythropoietin Quantikine IVD ELISA Kit, R&D Systems, Minneapolis, MD).

[1] = In vivo biodegradability assay (lipid concentration in mouse liver by LC-MS); parameters: species or system mice; details: BLOQ: below level of quantification; for In vivo degradability (ng tissue) at 48 h 0.1 mpk: Table 1, 0.1 mpk; for In vivo degradability (ng/tissue) at 48 h 0.1 mpk: Table 2, 0.1 mpk
Protocol: In vivo biodegradability assay was performed to assess the biodegradability of lipids in the LNP. Briefly, mice were injected with either 0.1 or 0.03 mg/Kg dose and after 24 or 48 hours mice livers were collected. To measure the concentration of lipids in the mouse liver, liver samples were homogenized in appropriate buffer in 1-10 dilution and mixed with the same amount of stabilized plasma. The samples were then mixed with organic solvents spiked with internal standard to precipitate proteins. After centrifugation, supernatant was diluted further with organic solvent before sample analysis by LC-MS. In LC-MS analysis, positive electrospray ionization was used, and multiple reaction monitoring (MRM) parameters were set up to specifically target the lipid analyte and internal standard. Calibration standards were prepared in stabilized plasma and mixed with same amount of homogenization buffer before protein precipitation. Quality control samples with known amounts of lipid was prepared in blank liver homogenate to monitor the precision and accuracy of the assay.

Mouse plasma stability = assay type: in vitro ADME, CD-1 mouse; details: 1 μM lipid
Protocol: Lipid stock solution was prepared by dissolution of the lipid in isopropanol at the concentration of 5 mg/mL. A requisite volume of the lipid-isopropanol solution was then diluted to 100 μM concentration at a total volume of 1.0 mL with in 50:50 (v/v) ethanol/water. Ten microliters of this 100 μM solution was spiked into 1.0 mL of mouse plasma (BioIVT, Cat. No.: MSE00PLNHUNN, CD-1 mouse, anticoagulant: sodium heparin, not filtered) that was pre-warmed to 37° C. and was stirred at 50 rpm with a magnetic stir bar. The starting concentration of lipids in plasma was thus 1 μM. At time points 0, 15, 30, 45, 60 and 120 min, 0.1 mL of the plasma was withdrawn from the reaction mixture and the protein was precipitated by adding 0.9 mL of ice-cold 4:1 (v/v) acetonitrile/methanol with 1 μg/mL of a selected internal standard lipid added. After filtration through a 0.45 micron 96-well filtering plate, the filtrates were analyzed by LC-MS (Thermo Fisher's Vanquish UHPLC-LTQ XL linear ion trap Mass Spectrometer); Waters XBridge BEH Shield RP18 2.5 micron (2.1×100 mm) column with its matching guard column. Mobile phase A was 0.1% formic acid in water, and mobile phase B was 0.1% formic acid in 1:1 (v/v) acetonitrile/methanol. Flow rate was 0.5 ml/min. Elution gradient was: Time 0-1 min: 10% B; 1-6 min: 10%-95% B; 6-8.5 min: 95% B; 8.5-9 min: 95%-10% B; 9-10 min: 10% B. Mass spectrometry was in positive scanning mode from 600-1100 m/z. The peak of the molecular ion of the lipids was integrated in the extracted ion chromatography (XIC) using Xcalibur software (Thermo Fisher). The relative peak area compared to T=0, after normalization by the peak area of the internal standard, was used as the percentage of the lipid remaining at each time point. T1/2 values were calculated using the first-order decay model.

CCC1CCC(C(=O)OCC(COC(=O)C2CCC(CC)CC2)OC(=O)CCCN(CCCC(=O)OC(COC(=O)C2CCC(CC)CC2)COC(=O)C2CCC(CC)CC2)C(=O)SCCCN(C)C)CC1 (stereo not shown) [LIPID 16, ((4,4′-((((3-(Dimethylamino)propyl)thio)carbonyl)azanediyl)bis(butanoyl))bis(oxy))bis(propane-2,1,3-triyl) tetrakis(4-ethylcyclohexane-1-carboxylate)]
EPO exprssn (ng/mL) 0.03 mpk (hEPO; Table 1): 2088 ng/mL
EPO exprssn (ng/mL) 0.1 mpk (hEPO; Table 1): 6358 ng/mL
EPO exprssn (ng/mL) 0.1 mpk (hEPO; Table 2): 2088 ng/mL
In vivo degradability (ng/tissue) at 48 h 0.03 mpk ([1]; Table 1, 0.03 mpk): <340 ng/tissue
In vivo degradability (ng tissue) at 48 h 0.1 mpk [1]: <340 ng tissue
In vivo degradability (ng/tissue) at 48 h 0.03 mpk ([1]; Table 2, 0.03 mpk): <340 ng/tissue
In vivo degradability (ng/tissue) at 48 h 0.1 mpk [1]: <340 ng/tissue
Plasma half life % remaining after 2 h (Mouse plasma stability; Table 1, 37° C.): 40%
Plasma half life % remaining after 2 h (Mouse plasma stability; Table 2, 37° C.): 40%

CC(CC1CCCCC1)C(=O)OCC(COC(=O)C(C)CC1CCCCC1)OC(=O)CCCN(CCCC(=O)OC(COC(=O)C(C)CC1CCCCC1)COC(=O)C(C)CC1CCCCC1)C(=O)SCCCN(C)C (stereo not shown) [LIPID 17, ((4,4′-((((3-(Dimethylamino)propyl)thio)carbonyl)-azanediyl)bis(butanoyl))bis(oxy))bis(propane-2,1,3-triyl) tetrakis(3-cyclohexyl-2-methylpropanoate)]
EPO exprssn (ng/mL) 0.03 mpk (hEPO; Table 1): 1082 ng/mL
EPO exprssn (ng/mL) 0.1 mpk (hEPO; Table 1): 1555 ng/mL
EPO exprssn (ng/mL) 0.1 mpk (hEPO; Table 2): 1082 ng/mL
In vivo degradability (ng/tissue) at 48 h 0.03 mpk ([1]; Table 1, 0.03 mpk): BLOQ
In vivo degradability (ng tissue) at 48 h 0.1 mpk [1]: BLOQ
In vivo degradability (ng/tissue) at 48 h 0.03 mpk ([1]; Table 2, 0.03 mpk): BLOQ
In vivo degradability (ng/tissue) at 48 h 0.1 mpk [1]: BLOQ
Plasma half life % remaining after 2 h (Mouse plasma stability; Table 2, 37° C.): 100%

CCCCCC(C)(C)C(=O)OCC(COC(=O)C(C)(C)CCCCC)OC(=O)CCCN(CCCC(=O)OC(COC(=O)C(C)(C)CCCCC)COC(=O)C(C)(C)CCCCC)C(=O)SCCCN(C)C [LIPID 19, ((4,4′-((((3-(Dimethylamino)propyl)thio)carbonyl)-azanediyl)bis(butanoyl))bis(oxy))bis(propane-2,1,3-triyl) tetrakis(2,2-dimethylheptanoate)]
In vivo degradability (ng/tissue) at 48 h 0.03 mpk ([1]; Table 1, 0.03 mpk): <340 ng/tissue
In vivo degradability (ng tissue) at 48 h 0.1 mpk [1]: 847 ng tissue
In vivo degradability (ng/tissue) at 48 h 0.03 mpk ([1]; Table 2, 0.03 mpk): <340 ng/tissue
In vivo degradability (ng/tissue) at 48 h 0.1 mpk [1]: 847 ng/tissue
Plasma half life % remaining after 2 h (Mouse plasma stability; Table 2, 37° C.): 100%

CC1CCC(CCC(=O)OCC(C)(COC(=O)CCC2CCC(C)CC2)COC(=O)CCN(CCC(=O)OCC(C)(COC(=O)CCC2CCC(C)CC2)COC(=O)CCC2CCC(C)CC2)C(=O)SCCCN(C)C)CC1 (stereo not shown) [LIPID 20]
In vivo degradability (ng/tissue) at 48 h 0.03 mpk ([1]; Table 2, 0.03 mpk): <340 ng/tissue
In vivo degradability (ng/tissue) at 48 h 0.1 mpk [1]: <340 ng/tissue
Plasma half life % remaining after 2 h (Mouse plasma stability; Table 2, 37° C.): 100%

CC1CCC(CC(=O)OCC(C)(COC(=O)CCN(CCC(=O)OCC(C)(COC(=O)CC2CCC(C)CC2)COC(=O)CC2CCC(C)CC2)C(=O)SCCCN(C)C)COC(=O)CC2CCC(C)CC2)CC1 (stereo not shown) [LIPID 21]
In vivo degradability (ng/tissue) at 48 h 0.03 mpk ([1]; Table 2, 0.03 mpk): <340 ng/tissue
In vivo degradability (ng/tissue) at 48 h 0.1 mpk [1]: <340 ng/tissue
Plasma half life % remaining after 2 h (Mouse plasma stability; Table 2, 37° C.): 100%

CCC1CCC(C(=O)OCC(C)(COC(=O)CCN(CCC(=O)OCC(C)(COC(=O)C2CCC(CC)CC2)COC(=O)C2CCC(CC)CC2)C(=O)SCCCN(C)C)COC(=O)C2CCC(CC)CC2)CC1 (stereo not shown) [LIPID 22, ((3,3′-((((3-(Dimethylamino)propyl)thio)carbonyl)azanediyl)bis(propanoyl))bis(oxy))bis(methylene)bis(2-methylpropane-2,1,3-triyl) tetrakis(2-(4-ethylcyclohexyl)acetate)]
In vivo degradability (ng/tissue) at 48 h 0.03 mpk ([1]; Table 2, 0.03 mpk): <340 ng/tissue
In vivo degradability (ng/tissue) at 48 h 0.1 mpk [1]: <340 ng/tissue
Plasma half life % remaining after 2 h (Mouse plasma stability; Table 2, 37° C.): 100%

CCCCC(C)(C)CC(=O)OCC(C)(COC(=O)CCN(CCC(=O)OCC(C)(COC(=O)CC(C)(C)CCCC)COC(=O)CC(C)(C)CCCC)C(=O)SCCCN(C)C)COC(=O)CC(C)(C)CCCC [LIPID 23]
In vivo degradability (ng/tissue) at 48 h 0.03 mpk ([1]; Table 2, 0.03 mpk): <340 ng/tissue
In vivo degradability (ng/tissue) at 48 h 0.1 mpk [1]: <340 ng/tissue
Plasma half life % remaining after 2 h (Mouse plasma stability; Table 2, 37° C.): 100%

CCCCCCCC(=O)OCC(C)(COC(=O)CCCCCCC)COC(=O)CCN(CCC(=O)OCC(C)(COC(=O)CCCCCCC)COC(=O)CCCCCCC)C(=O)SCCCN(C)C [LIPID 24]
In vivo degradability (ng/tissue) at 48 h 0.03 mpk ([1]; Table 2, 0.03 mpk): BLOQ
In vivo degradability (ng/tissue) at 48 h 0.1 mpk [1]: BLOQ
Plasma half life % remaining after 2 h (Mouse plasma stability; Table 2, 37° C.): 100%

CCCCCCCCC(=O)OCC(COC(=O)CCCCCCCC)COC(=O)CCCN(CCCC(=O)OCC(COC(=O)CCCCCCCC)COC(=O)CCCCCCCC)C(=O)SCCCN(C)C [LIPID 25, ((4,4′-((((3-(Dimethylamino)propyl)thio)carbonyl)azanediyl)bis(butanoyl))bis(oxy))bis(methylene))bis(propane-2,1,3-triyl) tetranonanoate]
In vivo degradability (ng/tissue) at 48 h 0.03 mpk ([1]; Table 2, 0.03 mpk): BLOQ
In vivo degradability (ng/tissue) at 48 h 0.1 mpk [1]: BLOQ
Plasma half life % remaining after 2 h (Mouse plasma stability; Table 2, 37° C.): 100%

CCCCCCCCC(=O)OCC(COC(=O)CCCCCCCC)COC(=O)CCN(CCC(=O)OCC(COC(=O)CCCCCCCC)COC(=O)CCCCCCCC)C(=O)SCCN(C)C [LIPID 26, ((3,3′-((((2-(Dimethylamino)ethyl)thio)carbonyl)azanediyl)bis(propanoyl))bis(oxy))bis(methylene))bis(propane-2,1,3-triyl) tetranonanoate]
In vivo degradability (ng/tissue) at 48 h 0.03 mpk ([1]; Table 2, 0.03 mpk): BLOQ
In vivo degradability (ng/tissue) at 48 h 0.1 mpk [1]: BLOQ
Plasma half life % remaining after 2 h (Mouse plasma stability; Table 2, 37° C.): 100%

CC1CCC(CCC(=O)OCC(COC(=O)CCC2CCC(C)CC2)COC(=O)CCN(CCC(=O)OCC(COC(=O)CCC2CCC(C)CC2)COC(=O)CCC2CCC(C)CC2)C(=O)SCCCN(C)C)CC1 (stereo not shown) [LIPID 27]
In vivo degradability (ng/tissue) at 48 h 0.03 mpk ([1]; Table 2, 0.03 mpk): BLOQ
In vivo degradability (ng/tissue) at 48 h 0.1 mpk [1]: BLOQ
Plasma half life % remaining after 2 h (Mouse plasma stability; Table 2, 37° C.): 100%

CN(C)CCCSC(=O)N(CCCC(=O)OC(COC(=O)C1CC2CCCCC2C1)COC(=O)C1CC2CCCCC2C1)CCCC(=O)OC(COC(=O)C1CC2CCCCC2C1)COC(=O)C1CC2CCCCC2C1 (stereo not shown) [LIPID 28]
In vivo degradability (ng/tissue) at 48 h 0.03 mpk ([1]; Table 2, 0.03 mpk): BLOQ
In vivo degradability (ng/tissue) at 48 h 0.1 mpk [1]: BLOQ
Plasma half life % remaining after 2 h (Mouse plasma stability; Table 2, 37° C.): 100%

CN(C)CCCSC(=O)N(CCCC(=O)OC(COC(=O)C1CCC2CCCC2C1)COC(=O)C1CCC2CCCC2C1)CCCC(=O)OC(COC(=O)C1CCC2CCCC2C1)COC(=O)C1CCC2CCCC2C1 (stereo not shown) [LIPID 30, ((4,4′-((((3-(dimethylamino)propyl)thio)carbonyl)azanediyl)bis(butanoyl))bis(oxy))bis(propane-2,1,3-triyl) tetrakis(octahydro-1H-indene-5-carboxylate)]
In vivo degradability (ng/tissue) at 48 h 0.03 mpk ([1]; Table 2, 0.03 mpk): BLOQ
In vivo degradability (ng/tissue) at 48 h 0.1 mpk [1]: BLOQ
Plasma half life % remaining after 2 h (Mouse plasma stability; Table 2, 37° C.): 100%

From patent publication US12723023B2, “Ionizable cationic lipids for RNA delivery” (Arcturus Therapeutics, Inc., priority 2021, dated 2026)
